Consider twelve compounds from ChEMBL document CHEMBL1201862, “PubChem BioAssay data set” (2004).

Some test systems named below: MOLT-4; LOX IMVI; 786-0; OVCAR-3; NCI-H226; M14; Malme-3M; KM12; HCT-15; RPMI-8226; CAKI-1; OVCAR-4; NCI-H460; A498; HL-60; ACHN; K562; SK-MEL-2.
Holding throughout (assay): NCI tumour cell line growth inhibition, 48 h

“And” between values parts separate entries of the source, which are not always exact repeats. Equal entries are not always repeated.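 Method: 48-hour compound exposure of cells in 96-well plates, five concentrations, linear interpolation of endpoints. At the GI50, growth is halved.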 The source made the active and inactive calls. No stated cut-off is given here; in the data, active = GI50 up to about 1.1 µM and inactive = higher.

As for `O=C(COc1ccc(/C=C/C(=O)c2ccc(Cl)cc2)cc1)Nc1c(Cl)cccc1Cl`, the GI50 was 10.7 µM (inactive) in the test on MOLT-4; 56.1 µM (inactive) in the test with LOX IMVI; > 100 µM (inactive) in the test with 786-0; > 100 µM (inactive) with OVCAR-3; > 100 µM (inactive) in the test on NCI-H226; > 100 µM (inactive) with M14. Besides, the GI50 with Malme-3M is > 100 µM (inactive); with KM12, 67.5 µM (inactive); in the test on HCT-15, > 100 µM; with RPMI-8226, 30.2 µM (inactive); in the test on CAKI-1, > 100 µM (inactive); in the test on OVCAR-4, 94 µM (inactive). The GI50 in the test with NCI-H460 was > 100 µM (inactive); in the test with A498, > 100 µM (inactive); in the test with HL-60 it was 0.0607 µM (active); in the test with ACHN it was > 100 µM (inactive).

`OC(c1ccccc1)(c1ccccc1)c1ccccn1`: the GI50 with MOLT-4, in the test on LOX IMVI, with 786-0, with OVCAR-3, in the test with NCI-H226 and in the test with M14 was > 100 µM (inactive) each time. Besides, the GI50 is > 100 µM (inactive) in the test with Malme-3M; > 100 µM (inactive) in the test with KM12; > 100 µM in the test on HCT-15; 95.5 µM (inactive) in the test on RPMI-8226; > 100 µM (inactive) in the test with K562; > 100 µM (inactive) and 85.7 µM (inactive) with CAKI-1. Moreover, the GI50 was > 100 µM (inactive) in the test on OVCAR-4; > 100 µM (inactive) with NCI-H460; > 100 µM (inactive) with SK-MEL-2; > 100 µM (inactive) with A498; 71.3 µM (inactive) with HL-60; > 100 µM (inactive) with ACHN.

As to `N#CC1(C#N)C2C=CC(c3coc4cccc2c34)C1(C#N)C#N` (configuration not stated), the GI50 in the test on MOLT-4 was 1.67 µM (inactive); in the test with LOX IMVI, 15.2 µM (inactive); in the test with 786-0 it was 20.5 µM (inactive); with OVCAR-3 it was 15.7 µM (inactive); in the test on NCI-H226, 19 µM (inactive); with M14 it was 12.7 µM (inactive). Besides, the GI50 in the test on Malme-3M was 7.05 µM (inactive); in the test on KM12, 18.3 µM (inactive); with HCT-15 it was 7.08 µM; in the test with RPMI-8226, 4.86 µM (inactive); with K562, 2.27 µM (inactive); in the test with OVCAR-4 it was 31.8 µM (inactive). The GI50 was 19.4 µM (inactive) with NCI-H460; 31.7 µM (inactive) in the test with SK-MEL-2; 20.4 µM (inactive) in the test on A498; 1.45 µM (inactive) in the test with HL-60; 5.53 µM (inactive) with ACHN.

In the case of `C/C=C1\Oc2ccc(OC)cc2S1(=O)=O`, the GI50 with MOLT-4, in the test with LOX IMVI, in the test with 786-0, in the test with OVCAR-3, with NCI-H226 and in the test with M14 was > 100 µM (inactive) in each case. The GI50 with Malme-3M was > 100 µM (inactive); with KM12, > 100 µM (inactive); with HCT-15, > 100 µM; with RPMI-8226, > 100 µM (inactive); in the test on K562 it was > 100 µM (inactive); in the test with CAKI-1, > 100 µM (inactive). Besides, the GI50 in the test with OVCAR-4, with NCI-H460, with SK-MEL-2, in the test with A498, in the test on HL-60 and in the test with ACHN was > 100 µM (inactive) in each case.

Take `CCOC(=O)c1cc2c3c(c(O)c(OC)c2s1)N(C(=O)c1cc2c4c(c(O)c(OC)c2s1)N(C(C)=O)CC4)CC3`: the GI50 in the test with LOX IMVI is > 100 µM (inactive); in the test on 786-0, 36.6 µM (inactive); in the test with OVCAR-3, 24.4 µM (inactive); in the test with NCI-H226, 50.4 µM (inactive); in the test with M14, 46.5 µM (inactive); with Malme-3M, 77.8 µM (inactive). Besides, the GI50 in the test on KM12 was > 100 µM (inactive); in the test with RPMI-8226 it was > 100 µM (inactive); with K562 it was > 100 µM (inactive); with CAKI-1 it was > 100 µM (inactive); with OVCAR-4, 71.6 µM (inactive); in the test with NCI-H460, > 100 µM (inactive). For the same compound, the GI50 in the test with A498 is 31.2 µM (inactive); in the test on HL-60, 28.2 µM (inactive); with ACHN it was 77.3 µM (inactive).

`O=C1C2=C(c3ccccc31)C(c1ccccc1Cl)N1C(=O)CCSC1=N2` (configuration not stated): the GI50 was 84.7 µM (inactive) in the test on MOLT-4; > 100 µM (inactive) in the test with 786-0; > 100 µM (inactive) with OVCAR-3; > 100 µM (inactive) in the test on NCI-H226; > 100 µM (inactive) in the test on M14; > 100 µM (inactive) in the test on Malme-3M. Moreover, the GI50 is > 100 µM (inactive) in the test on KM12; > 100 µM in the test on HCT-15; 81.5 µM (inactive) in the test with RPMI-8226; > 100 µM (inactive) with K562; > 100 µM (inactive) in the test on CAKI-1; 45.4 µM (inactive) in the test with OVCAR-4. Moreover, the GI50 in the test with SK-MEL-2, in the test with A498, in the test on HL-60 and in the test with ACHN was > 100 µM (inactive) throughout.

`C=C(CN(CC(=C)C(=O)c1ccccc1)C(C)(C)C)C(=O)c1ccccc1`: the GI50 in the test on MOLT-4 was 2.49 µM (inactive); in the test with LOX IMVI, 16.4 µM (inactive); in the test on 786-0 it was 11.3 µM (inactive); with OVCAR-3, 13.8 µM (inactive); in the test with NCI-H226 it was 24 µM (inactive); in the test on M14, 10.5 µM (inactive). The GI50 was 15.3 µM (inactive) in the test on Malme-3M; 13 µM (inactive) in the test on KM12; 4.38 µM (inactive) with RPMI-8226; 3.01 µM (inactive) in the test with K562; 4.28 µM (inactive) in the test on CAKI-1; 11.6 µM (inactive) in the test with OVCAR-4. For the same compound, the GI50 in the test with NCI-H460 was 20.6 µM (inactive); in the test with SK-MEL-2 it was 18.2 µM (inactive); with A498 it was 18.3 µM (inactive); with HL-60, 2.53 µM (inactive); with ACHN it was 8.99 µM (inactive).

`C=CCSc1ncnc2c1ncn2C1OC(CO)C(O)C1O` (configuration not stated): the GI50 in the test on MOLT-4 was 3.58 µM (inactive); in the test on LOX IMVI it was 4.72 µM (inactive); in the test with 786-0, 79.4 µM (inactive); in the test with OVCAR-3, 11.4 µM (inactive); with NCI-H226, > 100 µM (inactive); with M14, 33 µM (inactive). Moreover, the GI50 was > 100 µM (inactive) in the test with Malme-3M; > 100 µM (inactive) in the test with KM12; 7.94 µM in the test with HCT-15; 32.5 µM (inactive) in the test with RPMI-8226; 5.35 µM (inactive) in the test on K562; 17.7 µM (inactive) in the test with CAKI-1. The GI50 in the test with OVCAR-4 was > 100 µM (inactive); in the test with NCI-H460, 38.9 µM (inactive); in the test on SK-MEL-2, 58.7 µM (inactive); in the test with A498, 58.2 µM (inactive); in the test with HL-60, 36 µM (inactive); in the test with ACHN, 20.1 µM (inactive).

Take `CCN(CC)c1ccc(Cl)c2c1C(O)(C(C)C)C2(C)C` (configuration not stated): the GI50 was 16.5 µM (inactive) with MOLT-4; 17.3 µM (inactive) in the test with LOX IMVI; 14.5 µM (inactive) with 786-0; 12.6 µM (inactive) in the test with OVCAR-3; 16.5 µM (inactive) in the test with NCI-H226; 16.4 µM (inactive) in the test on M14. In addition, the GI50 in the test on Malme-3M was 13.9 µM (inactive); in the test on KM12, 15.1 µM (inactive); in the test with HCT-15, 14.5 µM; in the test on RPMI-8226, 13.2 µM (inactive); with K562 it was 19 µM (inactive); in the test on CAKI-1, 20 µM (inactive). The GI50 was 19 µM (inactive) with OVCAR-4; 13.4 µM (inactive) in the test on NCI-H460; 14.1 µM (inactive) in the test on SK-MEL-2; 21.3 µM (inactive) in the test on A498; 15.6 µM (inactive) in the test with HL-60; 17.4 µM (inactive) in the test on ACHN.

Turning to `Cc1c(C(=O)/C=C/C=C/c2ccccc2)[n+]([O-])c2ccccc2[n+]1[O-]`, the GI50 in the test on MOLT-4 was 40.5 µM (inactive); in the test with LOX IMVI, 31.1 µM (inactive); with 786-0 it was 21.9 µM (inactive); in the test with OVCAR-3, 26.1 µM (inactive); in the test on NCI-H226 it was 64.3 µM (inactive); in the test on M14, 19.8 µM (inactive). Further, the GI50 in the test with Malme-3M is 28.9 µM (inactive); in the test on KM12, 16.8 µM (inactive); in the test on HCT-15, 15.2 µM; with RPMI-8226, > 10 µM (inactive); in the test on K562, 31.8 µM (inactive); with CAKI-1, 51.8 µM (inactive). Also, the GI50 in the test on OVCAR-4 is 31.2 µM (inactive); in the test on NCI-H460 it was 18.8 µM (inactive); with SK-MEL-2, 31.7 µM (inactive); in the test on A498, 51.8 µM (inactive); in the test on HL-60, 26.1 µM (inactive); with ACHN, 25.7 µM (inactive).

With `CCCCC(C(=O)C(=O)Nc1ccccc1CC)C(=O)C(C)C` (configuration not stated), the GI50 in the test with MOLT-4, in the test with LOX IMVI, with 786-0, in the test with OVCAR-3, in the test on NCI-H226 and in the test with M14 was > 100 µM (inactive) in each case. For the same compound, the GI50 in the test with Malme-3M is > 100 µM (inactive); with KM12, > 100 µM (inactive); with HCT-15 it was > 100 µM; in the test on RPMI-8226, > 100 µM (inactive); in the test with K562 it was > 100 µM (inactive); in the test on CAKI-1, > 100 µM (inactive). Besides, the GI50 in the test with OVCAR-4, in the test on NCI-H460, with SK-MEL-2, in the test with A498, with HL-60 and in the test with ACHN was > 100 µM (inactive) throughout.

Consider `CC(C)(C)C1=CC(=C(P(=O)(O)O)P(=O)(O)O)C=C(C(C)(C)C)C1=O`, for which the GI50 in the test with MOLT-4, in the test on LOX IMVI, with 786-0, with OVCAR-3, in the test on NCI-H226 and in the test with M14 was > 50 µM (inactive) each time. Moreover, the GI50 with Malme-3M is > 50 µM (inactive); in the test on KM12 it was > 50 µM (inactive); with HCT-15, > 50 µM; with RPMI-8226, > 50 µM (inactive); with K562, > 50 µM (inactive); in the test on CAKI-1 it was > 50 µM (inactive). Further, the GI50 in the test with OVCAR-4, with NCI-H460, in the test with SK-MEL-2, in the test with A498, with HL-60 and with ACHN was > 50 µM (inactive) each time.
